Results from US20250255832A1, “SKIN ADHESIVE PATCH FOR NEGATIVE PRESSURE STIMULATION AND MANUFACTURING METHOD THEREFOR” (Research & Business Foundation Sungkyunkwan University, priority 2022, published 2025).
Entries after “also recorded” stand apart in the source; their conditions may differ. Where two headings read alike, the source gives them in different places.

B1: Ovalbumin (protein, UniProt P01012 2-386, looked up)
Ovalbumin: GSIGAASMEFCFDVFKELKVHHANENIFYCPIAIMSALAMVYLGAKDSTRTQINKVVRFDKLPGFGDSIEAQCGTSVNVHSSLRDILNQITKPNDVYSFSLASRLYAEERYPILPEYLQCVKELYRGGLEPINFQTAADQARELINSWVESQTNGIIRNVLQPSSVDSQTAMVLVNAIVFKGLWEKAFKDEDTQAMPFRVTEQESKPVQMMYQIGLFRVASMASEKMKILELPFASGTMSMLVLLPDEVSGLEQLESIINFEKLTEWTSSNVMEERKIKVYLPRMKMEEKYNLTSVLMAMGITDVFSSSANLSGISSAESLKISQAVHAAHAEINEAGREVVGSAEAGVDAASVSEEFRADHPFLFCIKHIATNAVLFFGRCVSP
notes: hydrophilic compound

Legend:
[1] = delivery depth by the d-SCC for various drugs with different molecular weights on pig skin; assay type: in vitro ADME; conditions: applied in combination with d-SCC
Source text: FIG. 11 includes: (a) a graph showing the improvement in delivery depth by the d-SCC for various drugs with different molecular weights on pig skin; and (b) images showing the delivered states of the respective drugs under each condition.

[2] = test system: atopic dermatitis-induced mice; experiment: transepidermal water loss in atopic dermatitis-induced mice, drugs combined with d-SCC; assay type: in vivo; conditions: applied in combination with the d-SCC patch
Source text: FIG. 13 includes: (a) images showing the skin recovery progression in atopic dermatitis-induced mice following the combined application of various drugs and the d-SCC; and (b) a graph illustrating transepidermal water loss over time resulting from the combined application of the respective drugs and the d-SCC.

[3] = artificial skin, vs without a patch

Molecule | delivery depth of drug applied together with d-SCC [1] | other results
Cc1occc(=O)c1O [Maltol] | greatest delivery depth among the tested conditions; also recorded: excellent delivery depth | transepidermal water loss (TEWL) of the skin [2]: recovered to a level closest to that of normal (control) skin
CC1=C(/C=C/C(C)=C/C=C/C(C)=C/CO)C(C)(C)CCC1 [Retinol] | excellent delivery depth | –
CCN(CC)c1ccc2c(-c3ccccc3C(=O)O)c3ccc(=[N+](CC)CC)cc-3oc2c1.[Cl-] [rhodamine B] | – | delivery depth improved compared to w/o patch ([3]; 30 minutes after removal of the patch): up to 95%; delivery depth improved compared to w/o patch ([3]; after 30 minutes of patch application): up to 138%
Hyaluronic acid | excellent delivery depth | –
Ramoplanin | excellent delivery depth | –
B1 | excellent delivery depth | –
